# Data from patent US6623933B1 (priority 1999, dated 2003).
# Where “and” joins values, the source holds several entries; their conditions need not be identical. Equal entries are not always repeated. Structures can show the parent of a compound that is named as a salt.
# Assays:
# NR1101/NR2B = target: T1, NR1101/NR2B (Rattus norvegicus, UniProt P35439+Q00960); experiment: NMDA receptor currents in Ba-Ringer, Xenopus oocytes, Example 3; type: cell-based
# T1 construct: expressed in transfected cells; host or cells: Xenopus oocytes
# [1] = target: T2, NR1011/NR2B-D chimera(IV) (Rattus norvegicus, UniProt P35439+Q62645, A747T/A861I/D811G/D828E/DEL874-885/E739D/E740D/F807L/G793D/G854A/H791Q/I800V/I813M/I830N/INS886[…]/K766R/K836Q/L790I/L804I/L808F/L850G/L858I/L870F/M815E/M890I/P736R/P799Q/Q744S/R732K/R737G/R765G/R795G/R818A/R869Q/S728A/S822T/T743L/T783S/V731G/V851A/V859T/V866F/W862C/Y733F); experiment: NR2 chimera study, Xenopus oocytes, Example 7; type: cell-based; conditions: 100 μM PS; 300 μM NMDA; 50 μM Glycine
# T2 construct: expressed in transfected cells; host or cells: Xenopus oocytes
# T2 sequence (Q62645 with tags, fused parts or gaps with the stated changes, other chains not shown): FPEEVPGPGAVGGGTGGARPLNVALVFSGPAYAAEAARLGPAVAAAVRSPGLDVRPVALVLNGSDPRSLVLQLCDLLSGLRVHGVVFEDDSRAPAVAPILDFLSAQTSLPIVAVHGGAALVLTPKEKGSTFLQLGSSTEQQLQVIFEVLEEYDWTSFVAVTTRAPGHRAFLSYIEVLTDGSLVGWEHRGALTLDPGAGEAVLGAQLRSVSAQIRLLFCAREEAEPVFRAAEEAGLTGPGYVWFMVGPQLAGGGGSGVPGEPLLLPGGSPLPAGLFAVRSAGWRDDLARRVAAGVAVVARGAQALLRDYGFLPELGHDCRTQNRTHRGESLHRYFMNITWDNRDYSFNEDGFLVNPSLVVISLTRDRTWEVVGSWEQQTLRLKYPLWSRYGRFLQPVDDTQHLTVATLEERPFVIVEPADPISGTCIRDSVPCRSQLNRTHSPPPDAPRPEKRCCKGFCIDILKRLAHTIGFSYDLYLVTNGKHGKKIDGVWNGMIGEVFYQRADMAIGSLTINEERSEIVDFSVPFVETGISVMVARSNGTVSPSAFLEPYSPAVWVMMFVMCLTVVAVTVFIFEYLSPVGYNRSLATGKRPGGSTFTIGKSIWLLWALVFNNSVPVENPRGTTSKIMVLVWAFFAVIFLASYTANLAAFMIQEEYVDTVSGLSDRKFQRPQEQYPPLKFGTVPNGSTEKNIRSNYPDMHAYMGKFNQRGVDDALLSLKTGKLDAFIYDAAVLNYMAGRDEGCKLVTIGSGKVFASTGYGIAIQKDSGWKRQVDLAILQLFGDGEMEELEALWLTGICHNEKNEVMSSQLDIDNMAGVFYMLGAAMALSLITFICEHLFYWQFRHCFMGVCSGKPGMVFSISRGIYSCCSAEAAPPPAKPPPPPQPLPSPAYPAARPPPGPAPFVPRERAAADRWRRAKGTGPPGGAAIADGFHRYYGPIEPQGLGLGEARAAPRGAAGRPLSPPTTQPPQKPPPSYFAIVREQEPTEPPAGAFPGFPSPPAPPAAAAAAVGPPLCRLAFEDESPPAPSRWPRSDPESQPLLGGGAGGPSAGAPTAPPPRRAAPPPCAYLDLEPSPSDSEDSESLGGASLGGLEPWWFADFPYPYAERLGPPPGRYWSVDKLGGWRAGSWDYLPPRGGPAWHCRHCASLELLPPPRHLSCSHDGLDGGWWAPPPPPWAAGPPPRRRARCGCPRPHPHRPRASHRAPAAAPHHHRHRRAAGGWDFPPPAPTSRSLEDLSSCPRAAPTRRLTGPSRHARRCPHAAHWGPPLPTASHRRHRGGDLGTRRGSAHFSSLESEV
# Description: In the fourth chimera receptor, NR2B-DChimera (IV), the residues 727 to 892 were replaced on NR2D with residues 703 to 870 of NR2B, which contains the second extracellular domain, the fourth hydrophobic transmembrane domain and 31 residues from the C-terminal intracellular tail.
# (§1) The chimeric receptors were generated by first introducing a series of silent restriction sites in both the NR2B and NR2D cDNA. The chimeric cDNAs were then constructed by replacing corresponding regions of one cDNA with that of the other. The silence site mutations were generated by a method involving PCR. […] This cassette was then ligated into the cDNA cut with the same two restriction enzymes.
# NR1111/NR2B = target: T3, NR1111/NR2B (Rattus norvegicus, UniProt P35439+Q00960); experiment: NMDA receptor currents in Ba-Ringer, Xenopus oocytes, Example 3; type: cell-based
# T3 construct: expressed in transfected cells; host or cells: Xenopus oocytes
# NR1/NR2B = target: T4, NR1/NR2B (Rattus norvegicus, UniProt P35439+Q00960); experiment: NMDA-induced membrane currents, Xenopus oocytes, Example 7; type: cell-based
# T4 construct: expressed in transfected cells; host or cells: Xenopus oocytes injected with mRNA
# Description: (§3) Plasmids were linearized with appropriate restriction enzyme prior to in vitro transcription using the Message Machine kit (Ambion, Inc., Austin, Tex.).
# (§4) Oocytes were injected with 50 nL of RNA solutions using an electronic microinjector (Drummond Inc., Broomall, Pa.). […] The injected oocytes were used for experiments following 1-5 days of incubation in Barth's solution at 18-20° C.
# (§5) The microelectrodes were fabricated with a programmed puller (Sutter Instrument Co., Calif.) from borosilicate glass capillaries and were filled with 3 M KCl solution. The resistance of filled microelectrodes was in the range of 1-3 MΩ. […] If not mentioned otherwise, during data acquisition oocytes were clamped at a holding potential of −70 mV. The membrane current was filtered at 500 Hz and sampled at 100 Hz. Drugs were applied using a gravity driven external perfusion system. The working ,volume of the recording chamber was 30 μl and the rate of the perfusion was 50 μl/sec. The drug application lasted 10 sec and was followed by a 60 sec wash. The data acquisition and external perfusion control were done using the SuperScopeII software package (GW Instruments, Mass.). […] Peak or steady-state current measurements were normalized and expressed as a fraction of the peak or steady-state control current measurements, which were performed before and after application of every single consentration of agonist or steroid. […]
# NR1011/NR2B = target: T5, NR1011/NR2B (Rattus norvegicus, UniProt P35439+Q00960); experiment: NMDA receptor currents in Ba-Ringer, Xenopus oocytes, Example 3; type: cell-based
# T5 construct: expressed in transfected cells; host or cells: Xenopus oocytes
# [2] = target: T6, NR1011/NR2B-D Chimera (III) (Rattus norvegicus, UniProt P35439+Q00960, A556P/A573T/A605S/A700P/A704S/A794R/A827V/A830G/C588S/C838W/D557A/D591T/D676E/D715E/D716E/D769G/DEL851-864/E594R/E701D/E791M/E804D/F554Y/F580L/F677Q/F681L/F709Y/F784L/F842V/F846L/G611A/G707V/G713R/G741R/G771R/G787D/G826L/I530V/I568T/I766L/I780L/I834L/I837A/I868M/INS849[…]/K624R/K669R/K708R/L566C/L719T/L783F/M789I/N675Q/N697S/N806I/P598S/Q621E/Q662T/Q767H/Q775P/Q812K/Q845R/R593K/R682K/R693K/R712P/R742K/S539A/S570V/S599T/S633L/S678Y/S720Q/S759T/T723A/T798S/T835V/V576I/V776I); experiment: NR2 chimera study, Xenopus oocytes, Example 7; type: cell-based; conditions: 100 μM PS; 300 μM NMDA; 50 μM Glycine
# T6 construct: expressed in transfected cells; host or cells: Xenopus oocytes
# Description: (§2) To produce the first subunit, 96% of the cytoplasmic COOH-terminal region of the NR2B subunit (residues 870 to 1482) were replaced with the corresponding region of the NR2D subunit (residues 892 to 1323).
# as §1
# [3] = target: T7, NR1011/NR2B-D Chimera(II) (Rattus norvegicus, UniProt P35439+Q00960+Q62645, A556P/A573T/A605S/A700P/A704S/A794R/A827V/A830G/C588S/C838W/D557A/D591T/D676E/D715E/D716E/D769G/E594R/E701D/E791M/E804D/F554Y/F580L/F677Q/F681L/F709Y/F784L/F842V/F846L/G611A/G707V/G713R/G741R/G771R/G787D/G826L/I530V/I568T/I766L/I780L/I834L/I837A/K624R/K669R/K708R/L566C/L719T/L783F/M789I/N675Q/N697S/N806I/P598S/Q621E/Q662T/Q767H/Q775P/Q812K/Q845R/R593K/R682K/R693K/R712P/R742K/S539A/S570V/S599T/S633L/S678Y/S720Q/S759T/T723A/T798S/T835V/V576I/V776I); experiment: NR2 chimera study, Xenopus oocytes, Example 7; type: cell-based; conditions: 100 μM PS; 300 μM NMDA; 50 μM Glycine
# T7 construct: expressed in transfected cells; host or cells: Xenopus oocytes
# Description: as §2, §1
# NR1011/NR2B-D Chimera(I) = target: T8, NR1011/NR2B-D Chimera(I) (Rattus norvegicus, UniProt P35439+Q00960+Q62645); experiment: NR2 chimera study, Xenopus oocytes, Example 7; type: cell-based; conditions: 100 μM PS; 300 μM NMDA; 50 μM Glycine
# T8 construct: expressed in transfected cells; host or cells: Xenopus oocytes
# Description: as §2, §1
# NR1/NR2A = target: T9, NR1/NR2A (Rattus norvegicus, UniProt P35439+Q00959); experiment: NMDA-induced membrane currents, Xenopus oocytes, Example 7; type: cell-based
# T9 construct: expressed in transfected cells; host or cells: Xenopus oocytes injected with mRNA
# T9 sequence (Q00959 23-1464, other chains not shown): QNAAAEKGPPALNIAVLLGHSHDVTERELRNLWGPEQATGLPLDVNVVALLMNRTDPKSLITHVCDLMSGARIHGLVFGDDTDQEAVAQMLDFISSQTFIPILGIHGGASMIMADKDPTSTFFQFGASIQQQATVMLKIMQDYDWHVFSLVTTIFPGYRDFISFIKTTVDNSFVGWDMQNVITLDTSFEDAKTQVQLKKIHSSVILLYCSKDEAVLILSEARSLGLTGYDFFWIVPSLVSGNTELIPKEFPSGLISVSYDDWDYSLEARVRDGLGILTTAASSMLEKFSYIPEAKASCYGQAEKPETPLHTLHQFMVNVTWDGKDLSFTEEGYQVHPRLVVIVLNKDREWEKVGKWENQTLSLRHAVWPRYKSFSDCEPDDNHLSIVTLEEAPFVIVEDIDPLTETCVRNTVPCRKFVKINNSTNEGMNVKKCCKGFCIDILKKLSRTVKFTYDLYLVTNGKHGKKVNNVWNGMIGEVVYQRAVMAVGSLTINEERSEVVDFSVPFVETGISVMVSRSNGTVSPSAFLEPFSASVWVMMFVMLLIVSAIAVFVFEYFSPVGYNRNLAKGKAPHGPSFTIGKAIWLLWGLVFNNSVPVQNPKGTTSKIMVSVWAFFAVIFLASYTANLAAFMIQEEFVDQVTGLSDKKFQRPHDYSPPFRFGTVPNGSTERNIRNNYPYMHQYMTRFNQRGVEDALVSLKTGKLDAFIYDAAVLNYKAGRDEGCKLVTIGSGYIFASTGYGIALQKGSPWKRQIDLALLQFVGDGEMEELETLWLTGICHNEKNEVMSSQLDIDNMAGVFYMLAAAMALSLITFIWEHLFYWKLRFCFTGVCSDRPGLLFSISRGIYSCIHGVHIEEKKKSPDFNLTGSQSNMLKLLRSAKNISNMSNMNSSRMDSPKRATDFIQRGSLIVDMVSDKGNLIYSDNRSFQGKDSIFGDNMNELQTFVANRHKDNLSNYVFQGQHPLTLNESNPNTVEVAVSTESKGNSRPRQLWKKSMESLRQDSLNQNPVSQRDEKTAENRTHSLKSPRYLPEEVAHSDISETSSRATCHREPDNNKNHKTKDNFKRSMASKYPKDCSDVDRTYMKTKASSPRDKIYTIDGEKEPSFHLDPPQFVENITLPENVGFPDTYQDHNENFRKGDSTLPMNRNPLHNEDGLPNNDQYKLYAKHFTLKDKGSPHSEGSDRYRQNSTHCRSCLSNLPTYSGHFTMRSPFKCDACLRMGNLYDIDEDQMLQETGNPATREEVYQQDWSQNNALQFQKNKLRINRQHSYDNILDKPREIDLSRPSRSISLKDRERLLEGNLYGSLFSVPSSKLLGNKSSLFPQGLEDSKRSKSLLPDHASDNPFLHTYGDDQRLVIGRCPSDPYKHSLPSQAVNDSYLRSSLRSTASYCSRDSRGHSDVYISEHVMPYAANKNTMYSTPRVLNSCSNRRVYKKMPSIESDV
# Description: as §3, §4, §5
# NR1100/NR2B = target: T10, NR1100/NR2B (Rattus norvegicus, UniProt P35439+Q00960); experiment: NMDA receptor currents in Ba-Ringer, Xenopus oocytes, Example 3; type: cell-based
# T10 construct: expressed in transfected cells; host or cells: Xenopus oocytes injected with RNA
# NR1/NR2B (NR1100) = NR1/NR2B (NR1100) (Rattus norvegicus, UniProt P35439+Q00960); experiment: cell-based
# NR1/NR2A (NR1100) = NR1/NR2A (NR1100) (Rattus norvegicus, UniProt P35439+Q00959); experiment: cell-based
# Description: Plasmids containing the NR1100 (NR1G) and NR2A cDNA inserts were kindly provided by Dr. Nakanishi (Kyoto University Faculty of Medicine, Kyoto, Japan). Plasmids containing the NR2B, NR2C and NR2D cDNA inserts were kindly provided by Dr. P. Seeburg (Heidelberg University, Heidelberg, Germany). Plasmids were linearized with appropriate restriction enzyme prior to in vitro transcription using the Message Machine kit (Ambion, Inc., Austin, Tex.).
# Female, oocyte-positive Xenopus laevis frogs were purchased from Xenopus I (Dexter, Mich.). […] Oocytes were injected with 50 nL of RNA solutions using an electronic microinjector (Drummond Inc., Broomall, Pa.). […] The injected oocytes were used for experiments following 1-5 days of incubation in Barth's solution at 18-20° C.
# The microelectrodes were fabricated from borosilicate glass capillaries with a programmed puller (Sutter Instrument Co., Calif.). Microelectrode resistance was 1-3 MΩ_when filled with 3 M KCl.
# Except where otherwise stated, oocytes were clamped at a holding potential of −70 mV during data acquisition. The membrane current was filtered at 500 Hz and sampled at 100 Hz. Drugs were applied using a gravity-driven external perfusion system. The working volume of the recording chamber was 30 μl and the rate of the perfusion was 50 μl/sec. The drug application lasted 10 sec and was followed by 60 s wash. Data acquisition and external perfusion were controlled using custom-written software implemented in the SuperScope II development environment (GW Instruments, Mass.). All experiments were performed at room temperature of 22-24° C. Peak or steady-state current measurements were normalized and expressed as a fraction of the peak or steady-state control current measurements, which were performed before and after application of every single concentration of agonists or steroids.
# Concentration-response data were analyzed by nonlinear regress ion using the logistic equation Response=Emax/(1+(EC50/c)^nH), where c is concentration, Emaxis the maximum response, nHis the Hill coefficient. The data are presented as mean±SEM. EC50values are averaged as logarithms (De Lean et al., Am. J. Physiol. 235: E97-E102 (1978))±the SEM of the log EC50. […] The pooled data were simultaneously fitted to the logistic equation, either with Emax and EC50 constrained to be identical in the presence and absence of PS, or allowing one or both to vary independently. […] This was regarded as indicating a significant treatment effect of PS, but the change in EC50and Emaxwas not considered significant. […] No attempt was made to test the generally small changes in nHfor statistical significance.
# NR1/NR2D (NR1100) = NR1/NR2D (NR1100) (Rattus norvegicus, UniProt P35439+Q62645); experiment: cell-based
# Chain of NR1/NR2D (NR1100) (Q62645 28-1323, other chains not shown): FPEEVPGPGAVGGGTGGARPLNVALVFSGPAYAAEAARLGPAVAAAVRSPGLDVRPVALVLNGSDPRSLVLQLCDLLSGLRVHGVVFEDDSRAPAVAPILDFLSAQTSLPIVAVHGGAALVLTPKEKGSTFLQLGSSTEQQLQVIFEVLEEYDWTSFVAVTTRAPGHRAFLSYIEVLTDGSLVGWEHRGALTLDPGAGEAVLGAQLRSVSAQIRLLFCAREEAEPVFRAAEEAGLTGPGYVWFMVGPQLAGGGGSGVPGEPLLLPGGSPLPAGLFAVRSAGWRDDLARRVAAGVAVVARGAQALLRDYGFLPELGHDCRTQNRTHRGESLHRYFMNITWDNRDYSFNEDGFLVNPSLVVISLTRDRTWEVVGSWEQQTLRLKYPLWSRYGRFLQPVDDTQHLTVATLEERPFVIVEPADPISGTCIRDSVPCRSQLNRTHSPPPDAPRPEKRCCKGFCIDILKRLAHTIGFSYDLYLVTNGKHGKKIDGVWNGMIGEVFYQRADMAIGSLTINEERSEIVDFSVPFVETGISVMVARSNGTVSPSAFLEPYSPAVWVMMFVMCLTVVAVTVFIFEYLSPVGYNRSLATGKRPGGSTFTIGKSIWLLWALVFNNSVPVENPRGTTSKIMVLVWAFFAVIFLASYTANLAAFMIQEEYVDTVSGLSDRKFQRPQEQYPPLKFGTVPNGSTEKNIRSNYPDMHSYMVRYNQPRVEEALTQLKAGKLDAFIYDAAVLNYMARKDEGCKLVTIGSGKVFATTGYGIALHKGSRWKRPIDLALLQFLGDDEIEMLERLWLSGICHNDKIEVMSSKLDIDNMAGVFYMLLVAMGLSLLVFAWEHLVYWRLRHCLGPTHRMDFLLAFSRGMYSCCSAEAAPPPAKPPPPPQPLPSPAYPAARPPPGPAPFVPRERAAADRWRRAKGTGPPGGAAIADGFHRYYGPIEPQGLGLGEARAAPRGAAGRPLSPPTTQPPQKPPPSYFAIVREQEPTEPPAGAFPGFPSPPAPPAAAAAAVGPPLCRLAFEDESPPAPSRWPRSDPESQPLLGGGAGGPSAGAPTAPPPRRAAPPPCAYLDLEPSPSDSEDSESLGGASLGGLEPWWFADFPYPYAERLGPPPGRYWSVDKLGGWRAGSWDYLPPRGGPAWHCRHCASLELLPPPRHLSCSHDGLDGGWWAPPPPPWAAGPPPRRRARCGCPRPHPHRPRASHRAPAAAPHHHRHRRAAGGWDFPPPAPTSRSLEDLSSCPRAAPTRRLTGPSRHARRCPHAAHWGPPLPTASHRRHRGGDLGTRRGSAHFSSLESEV
# [4] = read-out: 3α5βS Emax (% Change)
molecule,measurement,setting,value
pregnenolone sulfate [PS],PS Emax,NR1101/NR2B,1.03 ± 0.02
same,PS nHill,NR1101/NR2B,1.63 ± 0.29
same,potentiation of inward current,[1],66.05±2.75% and 66.05±2.76%
same,PS Emax,NR1111/NR2B,1.20 ± 0.10
same,PS nHill,NR1111/NR2B,1.52 ± 0.10
same,potentiation of membrane current,"NR1/NR2B; 100 μM PS, […] μM NMDA, 10 μM glycine",95±6%
same,maximum potentiation,NR1/NR2B; PS 0.5 to 200 μM,119±9%
same,PS Emax,NR1011/NR2B,0.78 ± 0.14
same,PS nHill,NR1011/NR2B,1.29 ± 0.19
same,inhibition of inward current,[2],36.74±6.54%
same,inhibition of inward current,[3],43.04±5.44%
same,potentiation of inward current,NR1011/NR2B-D Chimera(I),52.69±3.58%
same,potentiation of NMDA responsive membrane current,"NR1/NR2A; 100 μM PS, 80 μM NMDA, 10 μM glycine",59±4%
same,maximum potentiation,NR1/NR2A; PS 0.5 to 200 μM,67±7%
same,PS Emax,NR1100/NR2B,1.02 ± 0.10
same,PS nHill,NR1100/NR2B,1.42 ± 0.11
"CC(=O)[C@H]1CC[C@H]2[C@@H]3CC[C@@H]4C[C@H](OS(=O)(=O)O)CC[C@]4(C)[C@H]3CC[C@]12C [3α5βS, 3α5β-pregnanolone sulfate]",EC50,NR1/NR2B (NR1100),38 µM
same,Emax,NR1/NR2B (NR1100); [4],-82 ± 1%
same,EC50,NR1/NR2A (NR1100),62 µM
same,Emax,NR1/NR2A (NR1100); [4],-81 ± 5%
same,EC50,NR1/NR2D (NR1100),14 µM
same,Emax,NR1/NR2D (NR1100); [4],-98 ± 7%
